PubChem BioAssay AID1963829 (Molecular Pharmacology Branch, DTP, NCI, 2024)

Test system: 935938-334-R-J1-PDC complex spheroid viability
Assay: Anticancer human tumor 935938-334-R-J1-PDC patient-derived small intestine adenocarcinoma cell line growth inhibition [POLQ]
Conditions: for IC50: curve of first compound; for viability, T/C: stronger effect = lower value
Outline: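 Growth inhibition in 3D: complex spheroids (tumor PDC, HUVEC, MSC) treated with POLQ inhibitor combinations; where Cmax unknown, highest tested concentration 10 microM, except SN-38 at 1 microM.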
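Note: spheroids exposed to drugs for seven days before viability read.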
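Throughout, for viability, T/C: 100% = DMSO vehicle control wells.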

C#Cc1c(F)ccc2cc(O)cc(-c3ncc4c(N5CC6CCC(C5)N6)nc(OCC56CCCN5CC(F)C6)nc4c3F)c12 (configuration not stated) + COC1C(OC(N)=O)C(O)C(Oc2ccc3c(O)c(NC(=O)c4ccc(O)c(CC=C(C)C)c4)c(=O)oc3c2C)OC1(C)C
IC50 (second compound 0.0316 µM): 848 nM
IC50 (second compound 0.1 µM): 5680 nM
IC50 (second compound 0.316 µM): 1840 nM
IC50 (second compound 1 µM): 2620 nM
IC50 (second compound 3.16 µM): 6230 nM
IC50 (second compound 10 µM): 2920 nM
viability, T/C (second compound 0.0316 µM, first compound 0.0316 µM): 84.6%
viability, T/C (second compound 0.0316 µM, first compound 0.1 µM): 100%
viability, T/C (second compound 0.0316 µM, first compound 0.316 µM): 70.6%
viability, T/C (second compound 0.0316 µM, first compound 1 µM): 47.5%
viability, T/C (second compound 0.0316 µM, first compound 3.16 µM): 47.1%
viability, T/C (second compound 0.0316 µM, first compound 10 µM): 29.9%
viability, T/C (second compound 0.1 µM, first compound 0.0316 µM): 76.3%
viability, T/C (second compound 0.1 µM, first compound 0.1 µM): 93.5%
viability, T/C (second compound 0.1 µM, first compound 0.316 µM): 111%
viability, T/C (second compound 0.1 µM, first compound 1 µM): 73.1%
viability, T/C (second compound 0.1 µM, first compound 3.16 µM): 61.5%
viability, T/C (second compound 0.1 µM, first compound 10 µM): 41%
viability, T/C (second compound 0.316 µM, first compound 0.0316 µM): 106%
viability, T/C (second compound 0.316 µM, first compound 0.1 µM): 79.6%
viability, T/C (second compound 0.316 µM, first compound 0.316 µM): 121%
viability, T/C (second compound 0.316 µM, first compound 1 µM): 52%
viability, T/C (second compound 0.316 µM, first compound 3.16 µM): 62.6%
viability, T/C (second compound 0.316 µM, first compound 10 µM): 33.8%
viability, T/C (second compound 1 µM, first compound 0.0316 µM): 92.8%
viability, T/C (second compound 1 µM, first compound 0.1 µM): 81.2%
viability, T/C (second compound 1 µM, first compound 0.316 µM): 75.8%
viability, T/C (second compound 1 µM, first compound 1 µM): 65%
viability, T/C (second compound 1 µM, first compound 3.16 µM): 42%
viability, T/C (second compound 1 µM, first compound 10 µM): 44.1%
viability, T/C (second compound 3.16 µM, first compound 0.0316 µM): 96.7%
viability, T/C (second compound 3.16 µM, first compound 0.1 µM): 72%
viability, T/C (second compound 3.16 µM, first compound 0.316 µM): 75.9%
viability, T/C (second compound 3.16 µM, first compound 1 µM): 86.4%
viability, T/C (second compound 3.16 µM, first compound 3.16 µM): 43.1%
viability, T/C (second compound 3.16 µM, first compound 10 µM): 48.6%
viability, T/C (second compound 10 µM, first compound 0.0316 µM): 65.6%
viability, T/C (second compound 10 µM, first compound 0.1 µM): 97.9%
viability, T/C (second compound 10 µM, first compound 0.316 µM): 77.4%
viability, T/C (second compound 10 µM, first compound 1 µM): 57.2%
viability, T/C (second compound 10 µM, first compound 3.16 µM): 54.8%
viability, T/C (second compound 10 µM, first compound 10 µM): 43.9%
